Measurements as given in US20210322333A1, “Lignin-PLGA Biopolymers and Nanoparticles, and their Synthesis and Use” (Board of Supervisors of Louisiana State University and …, priority 2018, published 2021).
Marks after values point to notes of the source that are not given here.

Key:
[1] = test system: MDA-MB-231 breast cancer cells; test: Cell survival assay (crystal violet, 5 days); assay type: cell-based
Experimental: Breast cancer cell line MDA-MB-231 was generously donated by the Burrow Lab at Tulane University School of Medicine. Cells were maintained in 5% CO2 at 37° C. and cultured in Dulbecco's modified Eagle's medium (DMEM) supplemented with 10% Hyclone Cosmic Calf Serum (HyClone Laboratories, Utah), 50 ng/mL insulin (Sigma-Aldrich, St. Louis, Mo., USA), and 1% MEMAA, NEAA, sodium pyruvate, and antibiotic-antimycotic (Gibco, Dublin, Ireland).
MDA-MB-231 breast cancer cells were seeded at a density of 5000 cells per well in cell culture medium on 96-well Corning Costar tissue culture plastic plates (Corning Life Sciences, Corning, N.Y., USA). After 24 hours in culture, cells were treated with vehicle control (DMSO), PLGA NPs (negative control), AL-PLGA NPs (negative control), free GDC-0623 (positive control), PLGA-GDC NPs, or AL-PLGA-GDC NPs. […] Following treatment, cells were cultured for 5 days and then stained with crystal violet. Crystal violet was eluted with 33% acetic acid, and absorbance at 570 nm was measured with a BioTek Cytation 3 plate reader (BioTek Instruments Inc, Winooski, Vt., USA). The experiment was carried out with both internal replicates (n=3) and biological replicates (n=3).

[2] = cited from earlier work

For `O=C(NOCCO)c1ccc2cncn2c1Nc1ccc(I)cc1F` [GDC-0623], the “Mean Relative Cell Number (%)” value ([1]; 1 nM, relative to DMSO, n = 3) was 96.1%, the “Mean Relative Cell Number (%)” value ([1]; 10 nM GDC-0623 free or NP-entrapped, relative to DMSO (Table 6)) was 87.8* % and the “Mean Relative Cell Number (%)” value ([1]; 10 nM, relative to DMSO, n = 3) was 83.9%. The “Mean Relative Cell Number (%)” value ([1]; 100 nM GDC-0623, normalized versus free drug (Table 7, first group)) was 100.0%, the “Mean Relative Cell Number (%)” value ([1]; 100 nM GDC-0623 free or NP-entrapped, relative to DMSO (Table 6)) was 51.4** % and the “reduction in cell numbers” value ([1]; 100 nM, compared to DMSO (vehicle)) was 50%. The “Mean Relative Cell Number (%)” value ([1]; 100 nM, relative to DMSO, n = 3) was 46.8* %, the “Mean Relative Cell Number (%)” value ([1]; 1 μM, relative to DMSO, n = 3) was 31.3** % and the “Mean Relative Cell Number (%)” value ([1]; 10 μM, relative to DMSO, n = 3) was 30.9** %. The “Mean Relative Cell Number (%)” value ([1]; printed 100 nM GDC-0623, normalized versus free drug (Table 7, second group r12-r14)) was 100.0%, the pharmacokinetic characteristics ([2]; Phase I trials) was “dose-proportional and time-dependent” and the tolerability ([2]; Phase I trials) was “well-tolerated”. For the same compound, the accumulation at steady-state ([2]; daily oral dosing) was “no significant accumulation”.
